Results published in PubChem BioAssay (NCI).
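Following 48 hours of exposure in 96-well plates, responses at five concentrations were used to interpolate endpoints linearly. Abbreviation: GI50, concentration required for 50% inhibition of growth. TGI is the concentration that stops growth completely.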

Columns and labels:
Assay in all cases: DTP human tumour cell line panel, 48 h
T-47D breast = tested on: T-47D breast
PC-3 prostate = tested on: PC-3 prostate
HCT-116 colon = tested on: HCT-116 colon
MCF7 breast = tested on: MCF7 breast
A549 NSCLC = tested on: A549 NSCLC
RXF 393 renal = tested on: RXF 393 renal
SK-MEL-5 melanoma = tested on: SK-MEL-5 melanoma
A498 renal = tested on: A498 renal
UACC-62 melanoma = tested on: UACC-62 melanoma
UO-31 renal = tested on: UO-31 renal

SMILES	GI50 (T-47D breast)	TGI (T-47D breast)	GI50 (PC-3 prostate)	TGI (PC-3 prostate)	GI50 (HCT-116 colon)	TGI (HCT-116 colon)	GI50 (MCF7 breast)	TGI (MCF7 breast)	GI50 (A549 NSCLC)	TGI (A549 NSCLC)	GI50 (RXF 393 renal)	TGI (RXF 393 renal)	GI50 (SK-MEL-5 melanoma)	TGI (SK-MEL-5 melanoma)	GI50 (A498 renal)	TGI (A498 renal)	GI50 (UACC-62 melanoma)	TGI (UACC-62 melanoma)	GI50 (UO-31 renal)	TGI (UO-31 renal)
CCCCC#Cc1c(I)n(C)c(=O)[nH]c1=O	1.7 µM	6.96 µM	12.8 µM	25.4 µM	1.7 µM	3.07 µM	9.6 µM	25.4 µM	19.3 µM	34.9 µM	2.6 µM	5.91 µM	16.4 µM	30 µM	18.7 µM	32.7 µM	3.39 µM	12.2 µM	2.59 µM	10.2 µM
O=C(O)/C(Cc1cn[nH]n1)=N\O	–	> 100 µM	–	> 100 µM	–	> 100 µM	–	> 100 µM	–	> 100 µM	–	> 100 µM	–	> 100 µM	–	> 100 µM	–	> 100 µM	–	> 100 µM
C1CN(c2nnc(N3CCC3)nn2)C1	–	> 100 µM	–	> 60 µM	–	> 100 µM	–	> 72.2 µM	–	> 100 µM	–	> 74.5 µM	–	73.3 µM	–	> 100 µM	–	38.5 µM	–	> 100 µM
C#C[C@@]1(O)[C@@H](CO)O[C@@H](n2cc(I)c3c(N)ncnc32)[C@@H]1O	–	0.127 µM	0.0756 µM	> 38.1 µM	0.0434 µM	> 100 µM	< 0.0117 µM	> 100 µM	0.298 µM	> 100 µM	0.44 µM	2.26 µM	0.209 µM	3.3 µM	0.309 µM	1.43 µM	0.615 µM	2.78 µM	0.0901 µM	3.19 µM
O=C(CN(/C=C/C(=O)C(F)(F)F)c1ccc(Cl)cc1)c1ccc(Cl)c(Cl)c1	10.3 µM	29.9 µM	4.25 µM	16.7 µM	3.54 µM	13.2 µM	3.42 µM	16.6 µM	7.09 µM	21.5 µM	14.1 µM	36.1 µM	5.33 µM	20 µM	3.65 µM	16.7 µM	3.98 µM	16.1 µM	5.65 µM	18.8 µM
Cn1cc(C2=C(c3c[nH]c4ccccc34)C(=O)NC2=O)c2ccccc21	0.846 µM	> 25 µM	3.91 µM	> 25 µM	1.51 µM	> 25 µM	0.278 µM	> 25 µM	1.66 µM	> 25 µM	0.198 µM	1.96 µM	0.859 µM	3.1 µM	0.169 µM	0.755 µM	1.59 µM	> 25 µM	0.334 µM	> 25 µM
O=C(NCCCc1cn[nH]c1)c1ccc(-c2ccncc2)c(C#Cc2ccc(F)cc2)c1	–	11 µM	< 0.01 µM	76.8 µM	< 0.01 µM	15.2 µM	1.9 µM	> 70.2 µM	0.481 µM	> 100 µM	3.58 µM	19.8 µM	2.3 µM	16.6 µM	20.1 µM	> 68.5 µM	16.5 µM	> 70.1 µM	3.4 µM	> 67.2 µM
S=C1Cc2c(-c3ccc(Br)cc3)cc(-c3ccccc3)nc2-c2ccccc2N1	–	7.03 µM	–	23.3 µM	–	5.38 µM	–	> 100 µM	–	8.23 µM	–	6.01 µM	–	23.5 µM	–	3.71 µM	–	5.45 µM	–	4.77 µM
